Test results from the supplement of paper PMC5908809.

How the values were obtained:
[1] = system: normal NK cells expanded with K562-aAPC; assay: drug sensitivity score (DSS) (DSS units); higher = more sensitive; extreme values may be limits of the assay; conditions: 72 h; IL-2 2.5 ng/mL
Method: (§1)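 Drug sensitivity and resistance testing on K562-aAPC-expanded normal NK cells: 5 concentrations (10-fold steps over a 10,000-fold range), 72 h at 37 °C, viability by CellTiter-Glo normalised to DMSO and benzethonium chloride controls; DSS from the fitted curve.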

NK-92 (IL-2 2.5 ng/mL) [2] = assay: as above; conditions: 72 h
NK-YS (IL-2 2.5 ng/mL) [3] = assay: as above; conditions: 72 h
[4] = system: normal primary NK cells, pool 3 (3 donors) (IL-2 2.5 ng/mL); assay: as above; conditions: 72 h
[5] = system: normal primary NK cells, pool 1 (3 donors), resting (IL-2 0 ng/mL); assay: as above; conditions: 72 h
KHYG-1 (IL-2 2.5 ng/mL) [6] = assay: as above; conditions: 72 h
[7] = system: normal primary NK cells, pool 1 (3 donors) (IL-2 2.5 ng/mL); assay: as above; conditions: 72 h
[8] = system: normal primary NK cells, pool 2 (3 donors) (IL-2 2.5 ng/mL); assay: as above; conditions: 72 h
SNK-6 (IL-2 2.5 ng/mL) [9] = assay: as above; conditions: 72 h
KAI3 (IL-2 2.5 ng/mL) [10] = assay: as above; conditions: 72 h
NKL (IL-2 2.5 ng/mL) [11] = assay: as above; conditions: 72 h
IMC-1 (IL-2 20 ng/mL) [12] = assay: as above; conditions: 72 h
YT (IL-2 2.5 ng/mL) [13] = assay: as above; conditions: 72 h
DERL-7 (IL-2 2.5 ng/mL) [14] = assay: as above; conditions: 72 h
NK-92 (IL-2 2.5 ng/mL) [15] = assay: percent inhibition of viability; higher = more inhibition; conditions: 72 h
NK-YS (IL-2 2.5 ng/mL) [16] = assay: as above; conditions: 72 h
[17] = system: normal primary NK cells, pool 3 (3 donors) (IL-2 2.5 ng/mL); assay: as above; conditions: 72 h
[18] = system: normal primary NK cells, pool 1 (3 donors), resting (IL-2 0 ng/mL); assay: as above; conditions: 72 h
KHYG-1 (IL-2 2.5 ng/mL) [19] = assay: as above; conditions: 72 h
[20] = system: normal primary NK cells, pool 1 (3 donors) (IL-2 2.5 ng/mL); assay: as above; conditions: 72 h
[21] = system: normal primary NK cells, pool 2 (3 donors) (IL-2 2.5 ng/mL); assay: as above; conditions: 72 h
SNK-6 (IL-2 2.5 ng/mL) [22] = assay: as above; conditions: 72 h
KAI3 (IL-2 2.5 ng/mL) [23] = assay: as above; conditions: 72 h
NKL (IL-2 2.5 ng/mL) [24] = assay: as above; conditions: 72 h
IMC-1 (IL-2 20 ng/mL) [25] = assay: as above; conditions: 72 h
YT (IL-2 2.5 ng/mL) [26] = assay: as above; conditions: 72 h
DERL-7 (IL-2 2.5 ng/mL) [27] = assay: as above; conditions: 72 h
[28] = system: normal NK cells expanded with K562-aAPC; assay: as above; conditions: 72 h, IL-2 2.5 ng/mL
Method: as §1

COc1ccc(S(=O)(=O)Nc2cccnc2Nc2ccc(O)cc2)cc1 [ABT-751] (max concentration tested 10000 nM)
Conditions	drug sensitivity score
DERL-7 (IL-2 2.5 ng/mL) [14]	18.2
IMC-1 (IL-2 20 ng/mL) [12]	18.5
KAI3 (IL-2 2.5 ng/mL) [10]	13.8
KHYG-1 (IL-2 2.5 ng/mL) [6]	20.6
NK-92 (IL-2 2.5 ng/mL) [2]	21.4
NK-YS (IL-2 2.5 ng/mL) [3]	16.3
NKL (IL-2 2.5 ng/mL) [11]	15.4
SNK-6 (IL-2 2.5 ng/mL) [9]	21.9
YT (IL-2 2.5 ng/mL) [13]	20.3
[1]	11.1
[4]	1.19
[5]	5.02
[7]	0.04
[8]	0.52

percent inhibition of viability [%]
Conditions	1 nM	10 nM	100 nM	1000 nM	10000 nM
DERL-7 (IL-2 2.5 ng/mL) [27]	5.8	5.64	3.05	99.1	99
IMC-1 (IL-2 20 ng/mL) [25]	1.24	2.22	4.35	99.6	99.6
KAI3 (IL-2 2.5 ng/mL) [23]	7.18	10.3	18.4	62.9	74.9
KHYG-1 (IL-2 2.5 ng/mL) [19]	-0.83	2.36	14.9	104	104
NK-92 (IL-2 2.5 ng/mL) [15]	4.6	3.35	37.3	92.8	91.3
NK-YS (IL-2 2.5 ng/mL) [16]	-0.79	0.15	23.9	70.5	71.2
NKL (IL-2 2.5 ng/mL) [24]	-0.28	-14.8	-13.9	90.3	83.4
SNK-6 (IL-2 2.5 ng/mL) [22]	3.22	10.5	50.7	81.7	89.2
YT (IL-2 2.5 ng/mL) [26]	3.24	3.8	13.6	100	96.2
[17]	4.41	1.96	4.78	13.2	16.7
[18]	1.2	-5.61	-12	16.9	49.5
[20]	-9.52	-12.6	-7.29	0.64	11.6
[21]	0.28	3.85	0.94	8.44	14.7
[28]	2.34	4.2	3.33	57.7	58.5

O=C(NC1CCNCC1)c1n[nH]cc1NC(=O)c1c(Cl)cccc1Cl [AT7519] (max concentration tested 10000 nM)
Conditions	drug sensitivity score
DERL-7 (IL-2 2.5 ng/mL) [14]	17.3
IMC-1 (IL-2 20 ng/mL) [12]	17.4
KAI3 (IL-2 2.5 ng/mL) [10]	16.3
KHYG-1 (IL-2 2.5 ng/mL) [6]	12.7
NK-92 (IL-2 2.5 ng/mL) [2]	9.5
NK-YS (IL-2 2.5 ng/mL) [3]	18.9
NKL (IL-2 2.5 ng/mL) [11]	20.3
SNK-6 (IL-2 2.5 ng/mL) [9]	9.33
YT (IL-2 2.5 ng/mL) [13]	15.6
[1]	17.5
[4]	16.8
[5]	15.1
[7]	18.6
[8]	17.2

percent inhibition of viability [%]
Conditions	1 nM	10 nM	100 nM	1000 nM	10000 nM
DERL-7 (IL-2 2.5 ng/mL) [27]	3.68	-3.37	-6.6	99.2	100
IMC-1 (IL-2 20 ng/mL) [25]	5.46	1.26	-0.14	96.8	96.4
KAI3 (IL-2 2.5 ng/mL) [23]	1.05	-1.69	4.7	86.2	94
KHYG-1 (IL-2 2.5 ng/mL) [19]	-2.18	-4.7	1.67	61.9	96.3
NK-92 (IL-2 2.5 ng/mL) [15]	-10.5	-1.16	-2.58	32.2	90.7
NK-YS (IL-2 2.5 ng/mL) [16]	-2.23	-4.04	9.45	96.6	93.7
NKL (IL-2 2.5 ng/mL) [24]	1.32	5.88	13.8	102	97.5
SNK-6 (IL-2 2.5 ng/mL) [22]	6.43	-7.68	0.7	50.8	48.4
YT (IL-2 2.5 ng/mL) [26]	0.46	-3.64	6.82	79.9	97
[17]	-13.9	-11.2	-5.85	94.7	98.8
[18]	-42.2	-37.4	-20.6	90.1	89.6
[20]	-13.5	-8.03	6.78	96.9	97.9
[21]	-5.51	-3.1	0.18	95.2	95.8
[28]	-3.7	0.1	-4.47	99.1	100
